“Also recorded” adds a separate entry of the source.
Experiments:
[1] = system: 8226/Dox40; assay: MTS assay (cell viability / metabolic activity); type: cell-based, human; details: 8226/Dox40, 3 days
Method: (§1) Percent cell viability was determined using MTS solution (Promega, Madison, Wis.) by measuring absorbance at 490 nm using a Synergy HT Multi-Detection Microplate Reader (BioTek Instruments, Inc., Winooski, Vt.) with untreated cells being 100%. GraphPad Prism (GraphPad Software Inc., La Jolla, Calif.) was used to analyze data by non-linear regression with the log (inhibitor) vs. the response with a variable slope with the IC50 calculated. Data are expressed as a percentage of maximum metabolic activity. The experiments were performed in triplicate.
(§2) To determine if the HMCLs were sensitive to treatment with IFNα fusion protein, HMCLs were incubated with varying concentrations of anti-CD138-IFNα, and cell viability was assessed. Anti-CD138-IFNα was used to target IFNα to the MM cell lines while anti-CD20-IFNα was used as an untargeted control. After 3 days of treatment, cell viability was measured by MTS activity. The MM cell lines differed in their response to treatment with the fusion proteins.

[2] = system: Delta 47; assay: MTS assay (cell viability / metabolic activity); type: cell-based, human
Method: as §1, §2

[3] = system: XG-1; assay: MTS assay (cell viability / metabolic activity); type: cell-based, human; details: XG-1, 3 days
Method: as §1, §2

[4] = system: OPM-1; assay: MTS assay (cell viability / metabolic activity); type: cell-based, human
Method: as §1, §2

[5] = system: XG-2; assay: MTS assay (cell viability / metabolic activity); type: cell-based, human; details: XG-2, 3 days
Method: as §1, §2

[6] = system: S6B45; assay: MTS assay (cell viability / metabolic activity); type: cell-based, human; details: S6B45, 3 days
Method: as §1, §2

[7] = system: OCI-My 5 cells; assay: Cell proliferation assay (3[H]-thymidine incorporation); type: cell-based, human; details: OCI-My 5, 0.3 pM-25 nM, 3 days
Method: The proliferative status of the cells was determined by measuring ^3[H]-thymidine incorporation.

[8] = system: NCI-H929; assay: Cell cycle analysis (PI DNA content, flow cytometry); type: cell-based, human; details: NCI-H929, 500 pM, 4 days
Method: Cells were incubated with 1 ml of hypotonic DNA staining buffer (1 mg/ml sodium citrate, 100 μg/ml PI, 20 μg/ml RNase A, and 0.3% Triton X-100 in dH2O) for 30-60 min at 4° C. in the dark. Cells were analyzed by flow cytometry and cell cycle analysis performed using FlowJo software with the Watson Model.
Cells were incubated with 1 ml of hypotonic DNA staining buffer (1 mg/ml sodium citrate, 100 μg/ml PI, 20 μg/ml RNase A, and 0.3% Triton X-100) for 30-60 minutes at 4° C. in the dark. Cells were analyzed by flow cytometry and cell cycle analysis performed using FlowJo software with the Watson Model.

[9] = system: ANBL-6; assay: Senescence induced β-gal activity at pH 6 (C12FDG, flow cytometry); type: cell-based, human; details: ANBL-6, 1 nM, 3 days (data not shown)
Method: (§3) Senescence induced β-galactosidase (β-gal) activity was detected as described previously (Debacq-Chainiaux et al. (2009) Nature Protocols, 4: 1798-1806). […] To induce lysosomal alkalinization, cells were incubated in 100 nM bafilomycin A1 (Sigma) for 1 h. Then cells were incubated for 30 min with the β-gal substrate dodecanoylaminofluorescein di-β-D-galactopyranoside (C12FDG; Invitrogen), which becomes fluorescent after cleavage by β-gal. After washing twice with cold PBS, cells were resuspended in cold PBS containing 1 mM phenylethyl thiogalactoside (PETG), a β-gal inhibitor, and analyzed by flow cytometry for C12-fluorescein.
(§4) Intracellular β-galactosidase (β-gal) activity was measured as an indicator for replicative senescence. […] After treatment, cells were incubated with 100 nM bafilomycin A1 (Sigma) for 1 hour to induce lysosomal alkalinization. Then cells were incubated for 30 minutes with the 33 μM of β-gal substrate dodecanoylaminofluorescein di-β-D-galactopyranoside (C12FDG; Invitrogen), which becomes fluorescent after cleavage to C12-fluorescein. After washing twice with cold PBS, cells were resuspended in cold PBS containing 1 mM phenylethyl thiogalactoside (PETG), a β-gal inhibitor, and analyzed by flow cytometry for C12-fluorescein.

[10] = system: OCI-My5; assay: as above; type: cell-based, human
Method: as §3, §4

[11] = system: U266; assay: as above; type: cell-based, human; details: U266, 1 nM, 3 days
Method: as §3, §4

[12] = system: MM1-144; assay: as above; type: cell-based, human; details: MM1-144, 1 nM, 3 days
Method: as §3, §4

[13] = system: NCI-H929; assay: as above; type: cell-based, human; details: 1 nM, 3 days, listed as anti-CD138-IFNα2
Method: as §3, §4

[14] = system: MM1-144; assay: Ki-67 stain (flow cytometry); type: cell-based, human; details: MM1-144, 500 pM, 3 days
Method: (§5) Senescence induced β-galactosidase (β-gal) activity was detected as described previously (Debacq-Chainiaux et al. (2009) Nat. Protoc., 4: 1798-1806) and in Supplemental methods. To detect Ki-67 protein, cells were stained and analyzed by flow cytometry as described in Supplemental methods.
(§6) After treatment, cells were fixed with methanol on ice and then incubated with anti-Ki-67 rabbit IgG (Abcam). Cells were then stained with anti-rabbit IgG-FITC (Sigma) and analyzed by flow cytometry.

[15] = system: NCI-H929; assay: Ki-67 stain (flow cytometry); type: cell-based, human; details: NCI-H929, 500 pM, 3 days
Method: as §5, §6

[16] = system: OPM-2; assay: MTS assay (cell viability / metabolic activity); type: cell-based, human
Method: as §1
To determine if the HMCLs were sensitive to treatment with IFNα fusion protein, HMCLs were incubated with varying concentrations of anti-CD138-IFNα, and cell viability was assessed. Anti-CD138-IFNα was used to target IFNα to the MM cell lines while anti-CD20-IFNα was used as an untargeted control. […] The MM cell lines differed in their response to treatment with the fusion proteins.

[17] = system: U266 tumors; assay: U266 xenograft model in NSG mice; details: U266 s.c.
Method: For U266 tumors, NOD scid IL-2 receptor gamma chain knock out (NSG) mice were injected subcutaneously with 1×10^7 U226 cells and treated on days 14, 16 and 18 with 100 μg of the indicated proteins. […] Survival was monitored as well as the size of the tumors.
For U266 tumors, experiments were carried out as described above except that NOD-scid IL2rγ^null (NSG) mice were used.

anti-CD138-IFNα: Fusion protein: murine B-B4 anti-CD138 variable regions, human IgG1κ constant regions, human IFNα2 fused to the antibody C-terminus via SGGGGS linker
cell viability (MTS assay), result in words [1]: intermediate effect | cell viability (MTS assay), result in words ([1]; listed as Anti-CD138-IFNα2): some effect was observed only at high concentrations | cell viability (MTS assay), result in words ([2]; Delta 47, 3 days): little or no effect | cell viability (MTS assay), result in words ([2]; Delta 47, treatment increased to 4 days (data not shown)): decrease in viability | cell viability (MTS assay), result in words [3]: little or no effect | cell viability (MTS assay), result in words ([4]; OPM-1, 3 days): little or no effect | cell viability (MTS assay), result in words ([4]; OPM-1, treatment increased to 4 days (data not shown)): decrease in viability | cell viability (MTS assay), result in words [5]: little or no effect | cell viability (MTS assay), result in words [6]: intermediate effect | cell viability (MTS assay), result in words ([6]; listed as Anti-CD138-IFNα2): some effect was observed only at high concentrations | proliferation (3[H]-thymidine incorporation), result in words [7]: greater effect than IFNα alone | % G1 [8]: 41.9% | % G2/M [8]: 24.3% | % S [8]: 21.0% | >G2 [8]: 8.2% | Sub G0/G1 [8]: 18.9% | β-gal activity at pH 6 (senescence), result in words [9]: no increases | β-gal activity at pH 6 (senescence), result in words ([10]; OCI-My5, 1 nM, 3 days (also 4, 6, 7 days)): little or no increase in β-gal activity | Mode of Action of anti-CD138-IFNα fusion ([10]; OCI-My 5, footnote †): senescence† | β-gal activity at pH 6 (senescence), result in words [11]: no increase under any conditions | β-gal activity at pH 6 (senescence), result in words [12]: increases in β-gal activity | β-gal activity at pH 6 (senescence), result in words [13]: increases in β-gal activity; also recorded: greater effect than with IFNα2 alone | Ki-67 negative (non-dividing) cells, result in words [14]: more Ki-6T cells as compared to untreated control | Ki-67 negative (non-dividing) cells, result in words [15]: more Ki-6T cells as compared to untreated control | cell viability (MTS assay), result in words ([16]; OPM-2, 3 days): little or no effect | cell viability (MTS assay), result in words ([16]; OPM-2, treatment increased to 4 days (data not shown)): decrease in viability | survival / protection against tumor growth, result in words ([17]; 100 μg on days 14, 16, 18): much more effective than untargeted anti-DNS-IFNα | survival / protection against tumor growth, result in words ([17]; 100 μg on days 14, 16, 18, listed as anti-CD138-IFNα2): highest levels of protection
